Experimental data: ChEMBL document CHEMBL3763146 (J Med Chem, 2016)

What was measured:
[1] = biological target: Beta-3 adrenergic receptor (Canis lupus familiaris, UniProt O02662); assay: Agonist activity at dog beta3 adrenergic receptor expressed in CHO cells assessed as accumulation of cAMP after 30 mins by TR-FRET assay; type: functional, cell-based
[2] = biological target: T1, Beta-3 adrenergic receptor (Homo sapiens, UniProt P13945); assay: Agonist activity at human adrenergic beta3 receptor expressed in CHO cells assessed as accumulation of cAMP after 30 mins by TR-FRET assay in presence of 40% serum relative to (R)-(-)-isoproterenol; type: functional, cell-based
Target sequence in this assay (P13945 whole entry, looked up): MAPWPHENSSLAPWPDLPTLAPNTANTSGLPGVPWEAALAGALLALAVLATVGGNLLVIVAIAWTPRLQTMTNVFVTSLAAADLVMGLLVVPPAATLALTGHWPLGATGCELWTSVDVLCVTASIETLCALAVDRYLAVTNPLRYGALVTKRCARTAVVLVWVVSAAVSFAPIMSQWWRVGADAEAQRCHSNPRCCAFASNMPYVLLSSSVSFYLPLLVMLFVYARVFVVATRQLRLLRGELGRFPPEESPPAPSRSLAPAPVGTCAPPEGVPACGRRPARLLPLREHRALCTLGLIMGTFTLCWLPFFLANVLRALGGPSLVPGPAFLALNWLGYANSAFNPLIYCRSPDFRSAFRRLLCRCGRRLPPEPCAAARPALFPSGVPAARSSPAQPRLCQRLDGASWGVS

[3] = biological target: Beta-3 adrenergic receptor (Rattus norvegicus) (UniProt P26255); assay: Agonist activity at rat beta3 adrenergic receptor expressed in CHO cells assessed as accumulation of cAMP after 30 mins by TR-FRET assay in presence of 40% serum relative to (R)-(-)-isoproterenol; type: functional, cell-based
Sequence of Beta-3 adrenergic receptor (Rattus norvegicus) (P26255 whole entry): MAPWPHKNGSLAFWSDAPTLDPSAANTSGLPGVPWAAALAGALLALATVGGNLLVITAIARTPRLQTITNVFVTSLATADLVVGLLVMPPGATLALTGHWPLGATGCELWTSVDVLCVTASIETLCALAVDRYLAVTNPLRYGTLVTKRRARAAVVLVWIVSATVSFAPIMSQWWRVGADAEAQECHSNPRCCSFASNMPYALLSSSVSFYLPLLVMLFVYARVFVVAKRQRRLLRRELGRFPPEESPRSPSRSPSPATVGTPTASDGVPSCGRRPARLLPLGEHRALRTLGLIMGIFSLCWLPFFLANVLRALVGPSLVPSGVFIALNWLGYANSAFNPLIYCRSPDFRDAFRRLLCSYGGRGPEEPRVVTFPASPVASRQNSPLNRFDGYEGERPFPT

[4] = Induction of phospholidosis in human HepG2 cells incubated overnight by […] in presence of fluorescent labeled phospholipid probe NBD-PE; type: cell-based; conditions: read-out: A50
[5] = biological target: Sodium-dependent serotonin transporter (Homo sapiens, UniProt P31645); assay: Inhibition of human SERT expressed in HEK293 cells preincubated for 30 mins followed by fluorescent substrate addition measured after 30 mins by plate reader analysis; type: cell-based
Sequence of Sodium-dependent serotonin transporter (P31645 whole entry): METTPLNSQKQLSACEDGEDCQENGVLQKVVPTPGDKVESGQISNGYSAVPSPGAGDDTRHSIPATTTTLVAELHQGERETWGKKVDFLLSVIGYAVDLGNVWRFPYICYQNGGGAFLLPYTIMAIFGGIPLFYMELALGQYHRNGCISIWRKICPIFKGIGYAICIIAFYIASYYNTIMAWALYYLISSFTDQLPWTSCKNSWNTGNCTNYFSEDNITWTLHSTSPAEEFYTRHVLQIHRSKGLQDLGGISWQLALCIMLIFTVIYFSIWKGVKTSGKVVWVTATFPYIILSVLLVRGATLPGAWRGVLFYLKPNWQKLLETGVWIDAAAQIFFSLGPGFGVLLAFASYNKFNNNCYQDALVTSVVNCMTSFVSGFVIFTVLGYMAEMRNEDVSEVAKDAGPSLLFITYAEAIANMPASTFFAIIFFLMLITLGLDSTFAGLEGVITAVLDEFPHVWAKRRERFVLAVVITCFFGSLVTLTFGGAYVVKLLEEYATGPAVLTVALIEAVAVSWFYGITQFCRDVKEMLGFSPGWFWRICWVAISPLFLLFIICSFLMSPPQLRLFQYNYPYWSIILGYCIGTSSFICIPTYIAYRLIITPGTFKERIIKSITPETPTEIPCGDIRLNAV

[6] = Distribution coefficient, logD of the compound at pH 7.4; type: physicochemical; conditions: octanol/water
[7] = biological target: Sodium channel protein type 2 subunit alpha (Homo sapiens, UniProt Q99250); assay: Inhibition of human Nav1.2 channel expressed in Xenopus oocytes by two-intracellular microelectrode voltage clamp method; type: cell-based
[8] = biological target: Voltage-dependent L-type calcium channel subunit alpha-1C (Homo sapiens, UniProt Q13936); assay: Displacement of [3H]-diltiazem from human Cav1.2 channel
Cytochrome P450 3A4 = Cytochrome P450 3A4 (Homo sapiens, UniProt P08684); assay: Inhibition of CYP3A4 in human liver microsomes assessed as testosterone 6beta-hydroxylation; type: ADME
Sequence of Cytochrome P450 3A4 (P08684 whole entry): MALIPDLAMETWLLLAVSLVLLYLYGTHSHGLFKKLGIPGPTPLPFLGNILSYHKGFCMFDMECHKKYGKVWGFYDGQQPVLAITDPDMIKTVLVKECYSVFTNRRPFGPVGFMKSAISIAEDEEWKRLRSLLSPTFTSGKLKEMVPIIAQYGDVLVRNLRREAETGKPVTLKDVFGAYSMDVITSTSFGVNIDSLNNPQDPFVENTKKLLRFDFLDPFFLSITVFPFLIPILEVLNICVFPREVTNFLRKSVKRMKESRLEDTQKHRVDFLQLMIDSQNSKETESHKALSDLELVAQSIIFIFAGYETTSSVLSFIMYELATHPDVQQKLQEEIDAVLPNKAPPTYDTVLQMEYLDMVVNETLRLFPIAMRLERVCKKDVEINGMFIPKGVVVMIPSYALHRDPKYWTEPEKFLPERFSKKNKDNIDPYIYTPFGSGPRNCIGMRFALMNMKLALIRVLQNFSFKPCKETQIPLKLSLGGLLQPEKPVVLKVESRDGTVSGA

Cytochrome P450 2D6 = Cytochrome P450 2D6 (Homo sapiens, UniProt P10635); assay: Inhibition of CYP2D6 in human liver microsomes assessed as dextraomethorphan O-demethylation; type: ADME
Sequence of Cytochrome P450 2D6 (P10635 whole entry): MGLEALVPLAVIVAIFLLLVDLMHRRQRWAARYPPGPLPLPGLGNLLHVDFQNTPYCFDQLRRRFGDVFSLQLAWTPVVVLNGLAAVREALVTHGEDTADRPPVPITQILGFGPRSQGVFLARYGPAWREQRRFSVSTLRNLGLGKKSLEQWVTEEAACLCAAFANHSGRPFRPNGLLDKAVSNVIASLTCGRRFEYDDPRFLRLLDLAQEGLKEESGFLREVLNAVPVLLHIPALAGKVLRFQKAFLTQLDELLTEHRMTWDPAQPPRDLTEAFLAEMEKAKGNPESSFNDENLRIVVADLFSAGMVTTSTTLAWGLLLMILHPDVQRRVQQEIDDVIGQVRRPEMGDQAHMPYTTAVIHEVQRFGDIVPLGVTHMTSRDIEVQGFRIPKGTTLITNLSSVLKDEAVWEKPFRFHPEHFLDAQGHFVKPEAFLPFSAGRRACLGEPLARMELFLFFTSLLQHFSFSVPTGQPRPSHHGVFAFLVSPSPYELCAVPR

Cytochrome P450 2C9 = Cytochrome P450 2C9 (Homo sapiens, UniProt P11712); assay: Inhibition of CYP2C9 in human liver microsomes assessed as diclofenac alpha'-hydroxylation; type: ADME
Sequence of Cytochrome P450 2C9 (P11712 whole entry): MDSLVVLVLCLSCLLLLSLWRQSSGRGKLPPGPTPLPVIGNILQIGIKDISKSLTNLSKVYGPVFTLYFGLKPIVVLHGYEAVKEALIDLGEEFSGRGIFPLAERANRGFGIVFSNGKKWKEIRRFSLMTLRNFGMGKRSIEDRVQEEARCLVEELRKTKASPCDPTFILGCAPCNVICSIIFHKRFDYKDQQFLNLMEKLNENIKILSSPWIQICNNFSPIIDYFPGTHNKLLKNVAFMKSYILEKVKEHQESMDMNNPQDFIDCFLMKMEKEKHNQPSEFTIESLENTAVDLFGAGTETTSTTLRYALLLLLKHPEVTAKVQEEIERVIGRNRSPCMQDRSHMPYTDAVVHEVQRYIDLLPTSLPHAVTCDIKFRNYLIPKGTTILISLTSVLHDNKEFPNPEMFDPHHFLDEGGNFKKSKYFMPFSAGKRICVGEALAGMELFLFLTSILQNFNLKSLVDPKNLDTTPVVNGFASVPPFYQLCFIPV

[9] = biological target: T1, Beta-3 adrenergic receptor; assay: Agonist activity at human beta3 adrenergic receptor expressed in CHO cells assessed as accumulation of cAMP after 30 mins by TR-FRET assay relative to (R)-(-)-isoproterenol; type: functional, cell-based
Target sequence in this assay (P13945 whole entry, looked up): as the sequence (P13945 whole entry, looked up) above

[10] = biological target: T1, Beta-3 adrenergic receptor; assay: Agonist activity at human beta3 adrenergic receptor expressed in CHO cells assessed as accumulation of cAMP after 30 mins by TR-FRET assay; type: functional, cell-based
Target sequence in this assay (P13945 whole entry): as the sequence (P13945 whole entry, looked up) above

[11] = Plasma clearance in rat at 1 mg/kg, iv or 2 mg/kg, po; type: ADME, organism-based
[12] = Plasma clearance in dog at 0.5 mg/kg, iv or 2 mg/kg, po; type: ADME, organism-based, Canis lupus familiaris
[13] = Stability in human plasma assessed as parent compound remaining at 24 hrs by LC-MS analysis; type: ADME, cell-free; conditions: read-out: Stability
[14] = Plasma clearance in rhesus monkey at 0.5 mg/kg, iv or 2 mg/kg, po; type: ADME, organism-based, Macaca mulatta
Rattus norvegicus [15] = assay: Unbound clearance in rat at 1 mg/kg, iv or 2 mg/kg, po; type: ADME, organism-based; conditions: in vivo
Canis familiaris [16] = assay: Unbound clearance in dog at 0.5 mg/kg, iv or 2 mg/kg, po; type: ADME, organism-based, Canis lupus familiaris; conditions: in vivo
Rhesus monkey [17] = assay: Unbound clearance in rhesus monkey at 0.5 mg/kg, iv or 2 mg/kg, po; type: ADME, organism-based, Macaca mulatta; conditions: in vivo
[18] = Half life in rat at 1 mg/kg, iv or 2 mg/kg, po; type: ADME, organism-based; conditions: in vivo
[19] = Half life in dog at 0.5 mg/kg, iv or 2 mg/kg, po; type: ADME, organism-based, Canis lupus familiaris; conditions: in vivo
[20] = Half life in rhesus monkey at 0.5 mg/kg, iv or 2 mg/kg, po; type: ADME, organism-based, Macaca mulatta; conditions: in vivo
Rattus norvegicus [21] = assay: Dose normalized total AUC in rat at 2 mg/kg, po; type: ADME, organism-based; conditions: in vivo
Canis familiaris [22] = assay: Dose normalized total AUC in dog at 2 mg/kg, po; type: ADME, organism-based, Canis lupus familiaris; conditions: in vivo
Rhesus monkey [23] = assay: Dose normalized total AUC in rhesus monkey at 2 mg/kg, po; type: ADME, organism-based, Macaca mulatta; conditions: in vivo
Rattus norvegicus [24] = assay: Dose normalized fAUC in rat at 2 mg/kg, po; type: ADME, organism-based; conditions: in vivo
Canis familiaris [25] = assay: Dose normalized fAUC in dog at 2 mg/kg, po; type: ADME, organism-based, Canis lupus familiaris; conditions: in vivo
Rhesus monkey [26] = assay: Dose normalized fAUC in rhesus monkey at 2 mg/kg, po; type: ADME, organism-based, Macaca mulatta; conditions: in vivo
[27] = Oral bioavailability in rat at 2 mg/kg; type: ADME, organism-based; conditions: in vivo
[28] = Oral bioavailability in dog at 2 mg/kg; type: ADME, organism-based, Canis lupus familiaris; conditions: in vivo
[29] = Oral bioavailability in rhesus monkey at 2 mg/kg; type: ADME, organism-based, Macaca mulatta; conditions: in vivo
[30] = Fraction unbound in rat at 1 mg/kg, iv or 2 mg/kg, po; type: ADME, organism-based; conditions: in vivo
[31] = Fraction unbound in dog at 0.5 mg/kg, iv or 2 mg/kg, po; type: ADME, organism-based, Canis lupus familiaris; conditions: in vivo
[32] = Fraction unbound in rhesus monkey at 0.5 mg/kg, iv or 2 mg/kg, po; type: ADME, organism-based, Macaca mulatta; conditions: in vivo
[33] = Intrinsic clearance in rat liver microsomes; type: ADME; conditions: read-out: CLH
[34] = Intrinsic clearance in dog liver microsomes; type: ADME, Canis lupus familiaris; conditions: read-out: CLH
[35] = Intrinsic clearance in human liver microsomes; type: ADME; conditions: read-out: CLH
[36] = Intrinsic clearance in rhesus monkey liver microsomes; type: ADME, Macaca mulatta; conditions: read-out: CLH
[37] = Stability in rat plasma assessed as parent compound remaining at 24 hrs by LC-MS analysis; type: ADME, cell-free; conditions: read-out: Stability
[38] = Stability in dog plasma assessed as parent compound remaining at 24 hrs by LC-MS analysis; type: ADME, cell-free, Canis lupus familiaris; conditions: read-out: Stability
[39] = Stability in rhesus monkey plasma assessed as parent compound remaining at 24 hrs by LC-MS analysis; type: ADME, cell-free, Macaca mulatta; conditions: read-out: Stability
[40] = biological target: T2, Beta-3 adrenergic receptor (Rattus norvegicus, UniProt P26255); assay: Agonist activity at rat beta3 adrenergic receptor expressed in CHO cells assessed as accumulation of cAMP after 30 mins by TR-FRET assay; type: functional, cell-based
T2 sequence (P26255 whole entry): as the sequence (P26255 whole entry) above

[41] = biological target: Beta-3 adrenergic receptor (Rattus norvegicus) (UniProt P26255); assay: Agonist activity at rat beta3 adrenergic receptor expressed in CHO cells assessed as accumulation of cAMP after 30 mins by TR-FRET assay relative to (R)-(-)-isoproterenol; type: functional, cell-based
[42] = biological target: Beta-3 adrenergic receptor (Macaca mulatta, UniProt Q28524); assay: Agonist activity at rhesus monkey beta3 adrenergic receptor expressed in CHO cells assessed as accumulation of cAMP after 30 mins by TR-FRET assay; type: functional, cell-based
Sequence of Beta-3 adrenergic receptor (Macaca mulatta, UniProt Q28524) (Q28524 whole entry): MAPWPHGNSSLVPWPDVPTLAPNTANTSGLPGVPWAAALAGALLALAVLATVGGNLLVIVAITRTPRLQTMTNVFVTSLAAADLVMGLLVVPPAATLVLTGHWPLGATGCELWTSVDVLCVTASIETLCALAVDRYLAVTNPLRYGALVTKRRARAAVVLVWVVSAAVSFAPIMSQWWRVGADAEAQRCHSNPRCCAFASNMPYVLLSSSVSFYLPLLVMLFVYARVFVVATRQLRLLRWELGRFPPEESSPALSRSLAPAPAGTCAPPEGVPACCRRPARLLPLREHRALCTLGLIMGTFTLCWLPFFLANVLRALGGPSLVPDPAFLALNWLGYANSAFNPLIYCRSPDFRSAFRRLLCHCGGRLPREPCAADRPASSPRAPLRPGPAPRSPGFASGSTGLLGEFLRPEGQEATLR

[43] = biological target: Beta-3 adrenergic receptor (Macaca mulatta) (UniProt Q28524); assay: Agonist activity at rhesus monkey beta3 adrenergic receptor expressed in CHO cells assessed as accumulation of cAMP after 30 mins by TR-FRET assay relative to (R)-(-)-isoproterenol; type: functional, cell-based
Sequence of Beta-3 adrenergic receptor (Macaca mulatta) (Q28524 whole entry): as above

[44] = biological target: T2, Beta-3 adrenergic receptor; assay: Agonist activity at rat beta3 adrenergic receptor expressed in CHO cells assessed as accumulation of cAMP after 30 mins by TR-FRET assay in presence of 40% serum; type: functional, cell-based
[45] = biological target: T1, Beta-3 adrenergic receptor; assay: Agonist activity at human adrenergic beta3 receptor expressed in CHO cells assessed as accumulation of cAMP after 30 mins by TR-FRET assay in presence of 40% serum; type: functional, cell-based
Target sequence in this assay (P13945 whole entry): as the sequence (P13945 whole entry, looked up) above

Rattus norvegicus [46] = assay: Increase in detrusor muscle relaxation in iv infused Sprague-Dawley rat acetic acid-induced bladder hyperreflexia model assessed as decrease in micturition pressure measured over 30 to 45 mins; type: functional, organism-based
Rattus norvegicus [47] = assay: Increase in detrusor muscle relaxation in iv infused Sprague-Dawley rat acetic acid-induced bladder hyperreflexia model assessed as increase in functional bladder capacity measured over 30 to 45 mins; type: organism-based
[48] = biological target: Beta-2 adrenergic receptor (Homo sapiens, UniProt P07550)
Sequence of Beta-2 adrenergic receptor (P07550 whole entry): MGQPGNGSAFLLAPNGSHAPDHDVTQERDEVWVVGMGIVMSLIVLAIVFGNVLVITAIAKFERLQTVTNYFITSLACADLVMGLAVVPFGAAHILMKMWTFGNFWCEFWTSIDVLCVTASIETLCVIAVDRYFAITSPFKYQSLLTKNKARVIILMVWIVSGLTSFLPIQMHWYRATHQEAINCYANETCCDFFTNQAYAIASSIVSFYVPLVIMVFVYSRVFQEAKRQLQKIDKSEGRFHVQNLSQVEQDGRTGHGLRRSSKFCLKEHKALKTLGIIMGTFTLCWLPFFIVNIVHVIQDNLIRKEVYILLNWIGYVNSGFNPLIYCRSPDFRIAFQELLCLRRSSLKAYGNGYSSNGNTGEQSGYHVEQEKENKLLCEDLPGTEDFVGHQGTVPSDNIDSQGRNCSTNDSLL
Description: Displacement of [125]I-cyanopindolol from human recombinant beta2 adrenergic receptor after 1 hr by scintillation counting method

[49] = biological target: Beta-1 adrenergic receptor (Homo sapiens, UniProt P08588)
Sequence of Beta-1 adrenergic receptor (P08588 whole entry): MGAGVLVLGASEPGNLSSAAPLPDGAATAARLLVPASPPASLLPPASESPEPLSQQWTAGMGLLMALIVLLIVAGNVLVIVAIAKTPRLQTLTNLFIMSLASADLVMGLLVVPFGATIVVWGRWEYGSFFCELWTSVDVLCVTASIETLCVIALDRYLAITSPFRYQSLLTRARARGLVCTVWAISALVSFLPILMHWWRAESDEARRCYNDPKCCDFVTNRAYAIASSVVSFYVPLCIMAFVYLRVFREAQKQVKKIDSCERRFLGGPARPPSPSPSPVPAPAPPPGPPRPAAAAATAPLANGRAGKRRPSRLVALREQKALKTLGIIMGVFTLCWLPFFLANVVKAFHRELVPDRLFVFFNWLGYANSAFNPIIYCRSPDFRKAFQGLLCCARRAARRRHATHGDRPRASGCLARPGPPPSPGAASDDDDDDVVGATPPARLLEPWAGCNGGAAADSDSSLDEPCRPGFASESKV
Description: Displacement of [125]I-cyanopindolol from recombinant human beta1 adrenergic receptor after 1 hr by scintillation counting method

Sequence of Beta-3 adrenergic receptor (Canis lupus familiaris, UniProt O02662) (O02662 whole entry): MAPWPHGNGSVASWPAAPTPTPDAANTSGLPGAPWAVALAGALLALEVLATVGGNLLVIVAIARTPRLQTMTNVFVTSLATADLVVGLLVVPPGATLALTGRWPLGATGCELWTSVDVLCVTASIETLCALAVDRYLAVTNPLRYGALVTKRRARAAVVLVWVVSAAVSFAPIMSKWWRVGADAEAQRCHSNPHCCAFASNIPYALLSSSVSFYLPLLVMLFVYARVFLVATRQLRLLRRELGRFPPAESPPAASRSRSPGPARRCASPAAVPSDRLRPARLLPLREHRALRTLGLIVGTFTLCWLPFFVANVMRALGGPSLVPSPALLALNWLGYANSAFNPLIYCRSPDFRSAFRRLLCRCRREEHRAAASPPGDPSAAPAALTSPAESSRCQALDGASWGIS

O=C(Cn1ncccc1=O)Nc1ccc(C[C@@H]2CC[C@H]([C@H](O)c3ccccc3)N2)cc1
EC50 [1]: 0.047 µM
max activation [2]: 96%
max activation [3]: 99%
AC50 [4]: 67 µM
IC50 [5]: 4.4 µM
logD [6]: 1
IC50 [7]: > 30 µM
IC50 [8]: > 30 µM
IC50 (Cytochrome P450 3A4): > 100 µM
IC50 (Cytochrome P450 2D6): > 100 µM
IC50 (Cytochrome P450 2C9): > 100 µM
max activation [9]: 105%
EC50 [10]: 0.0048 µM
clearance [11]: 2.4 L/h/kg
clearance [12]: 0.444 L/h/kg
remaining at 24 h [13]: 26%
clearance [14]: 1.26 L/h/kg
CL free (Rattus norvegicus [15]): 8.88 L/h/kg
CL free (Canis familiaris [16]): 0.9 L/h/kg
CL free (Rhesus monkey [17]): 1.98 L/h/kg
half-life [18]: 5 h
half-life [19]: 8 h
half-life [20]: 9 h
AUC/dose (Rattus norvegicus [21]): 66 nM·h/mg/kg
AUC/dose (Canis familiaris [22]): 1200 nM·h/mg/kg
AUC/dose (Rhesus monkey [23]): 820 nM·h/mg/kg
fAUC/dose (Rattus norvegicus [24]): 17 nM·h/mg/kg
fAUC/dose (Canis familiaris [25]): 612 nM·h/mg/kg
fAUC/dose (Rhesus monkey [26]): 517 nM·h/mg/kg
bioavailability [27]: 14%
bioavailability [28]: 18%
bioavailability [29]: 46%
fraction unbound [30]: 0.27
fraction unbound [31]: 0.51
fraction unbound [32]: 0.63
CLint scaled [33]: < 0.9 L/h/kg
CLint scaled [34]: 0.66 L/h/kg
CLint scaled [35]: < 0.6 L/h/kg
CLint scaled [36]: < 0.6 L/h/kg
remaining at 24 h [37]: 95%
remaining at 24 h [38]: 100%
remaining at 24 h [39]: 95%
EC50 [40]: 0.615 µM
max activation [41]: 79%
EC50 [42]: 0.0035 µM
max activation [43]: 91%
EC50 [44]: 1.06 µM
EC50 [45]: 0.0059 µM
Activity (Rattus norvegicus [46]): Dose-dependent effect
Activity (Rattus norvegicus [47]): Dose-dependent effect
IC50 [48]: > 20 µM
IC50 [49]: > 20 µM
